Assay results as given in the CheMixHub viscosity set.
Values joined by “and” are separate entries in the source; they are usually repeats but may differ in a detail not shown here. Identical values can stand only once.

Assay: xn = mol fraction of the nth substance listed

CCCCCN + Cc1ccccc1
303.15 K, 101 kPa
Details	viscosity [mPa·s]
x2 = 0.1128	0.556
x2 = 0.2313	0.5323
x2 = 0.3808	0.5104
x2 = 0.4933	0.5008
x2 = 0.5377	0.4969
x2 = 0.6473	0.4932
x2 = 0.7388	0.4938
x2 = 0.8447	0.4984
x2 = 0.9229	0.5071

CCOC(=O)c1ccccc1 + C1CCOC1
viscosity [mPa·s], 101 kPa
Details	x1 = 0.0601	x1 = 0.1259	x1 = 0.198	x1 = 0.2773	x1 = 0.3628	x1 = 0.4611	x1 = 0.5719	x1 = 0.6953	x1 = 0.8372
303.15 K	0.488	0.545	0.617	0.706	0.804	0.937	1.083	1.257	1.474
308.15 K	0.473	0.524	0.595	0.676	0.767	0.885	1.019	1.168	1.36
313.15 K	0.436	0.49	0.553	0.626	0.706	0.809	0.928	1.063	1.229

[Na+].[OH-] + O
Details	viscosity
293.15 K, 101.33 kPa, x2 = 0.67	96.16 mPa·s
293.15 K, 101.33 kPa, x2 = 0.8	22.24 mPa·s
293.15 K, 101.33 kPa, x2 = 0.83	18.37 mPa·s
293.15 K, 101.33 kPa, x2 = 0.85	9.529 mPa·s
293.15 K, 101.33 kPa, x2 = 0.86	8.225 mPa·s
293.15 K, 101.33 kPa, x2 = 0.89	6.356 mPa·s
293.15 K, 101.33 kPa, x2 = 0.9	4.63 mPa·s
323.15 K, 101 kPa, x1 = 0.009	0.609 mPa·s
323.15 K, 101 kPa, x1 = 0.026	0.745 mPa·s
323.15 K, 101 kPa, x1 = 0.05	1.02 mPa·s
323.15 K, 101 kPa, x1 = 0.1	1.88 mPa·s and 3.28 mPa·s
323.15 K, 101 kPa, x1 = 0.18	5.04 mPa·s
323.15 K, 101 kPa, x1 = 0.22	7.88 mPa·s
323.15 K, 101 kPa, x1 = 0.3	10.9 mPa·s

C1=CCCCC1 + c1ccccc1
303.15 K, 101 kPa
Details	viscosity [mPa·s]
x1 = 0.1198	0.57
x1 = 0.2756	0.568
x1 = 0.3442	0.569
x1 = 0.4509	0.566
x1 = 0.4904	0.566
x1 = 0.6697	0.568
x1 = 0.7561	0.568
x1 = 0.8665	0.571

Cc1cccc([N+](=O)[O-])c1 + c1ccccc1
303.15 K, 101.33 kPa
Details	viscosity [mPa·s]
x1 = 0.2	0.7
x1 = 0.395	0.85
x1 = 0.599	1.09
x1 = 0.804	1.44

CCOC(=O)c1ccccc1 + CCOC(C)=O
298.15 K, 101 kPa
Details	viscosity [mPa·s]
x2 = 0.1216	1.704
x2 = 0.2088	1.514
x2 = 0.3131	1.292
x2 = 0.3973	1.157
x2 = 0.5044	0.9851
x2 = 0.5998	0.8478
x2 = 0.6989	0.7247
x2 = 0.7997	0.6178
x2 = 0.8992	0.5188

CCCNCCC + CCCCCO
viscosity [mPa·s], 101.33 kPa
Details	x1 = 0.0952	x1 = 0.1918	x1 = 0.2881	x1 = 0.3825	x1 = 0.5157	x1 = 0.616	x1 = 0.7094	x1 = 0.8061	x1 = 0.9023
303.15 K	2.51	2.185	1.875	1.593	1.244	1.034	0.8687	0.7254	0.6098
313.15 K	2.051	1.767	1.51	1.281	1.02	0.8452	0.7187	0.6045	0.5061

CC1CCCCC1 + CCCO
303.15 K, 101.33 kPa
Details	viscosity [mPa·s]
x1 = 0.0998	1.42
x1 = 0.2182	1.188
x1 = 0.4212	0.918
x1 = 0.576	0.777
x1 = 0.7398	0.677
x1 = 0.9	0.637

CCOC(=O)c1ccccc1 + CCCCCCCCCCCC
101 kPa
Details	viscosity [mPa·s]
298.15 K, x2 = 0.031	1.896
298.15 K, x2 = 0.062	1.835
298.15 K, x2 = 0.0893	1.785
298.15 K, x2 = 0.1261	1.726
298.15 K, x2 = 0.168	1.663
298.15 K, x2 = 0.2378	1.58
298.15 K, x2 = 0.2782	1.532
298.15 K, x2 = 0.3577	1.462
298.15 K, x2 = 0.4064	1.427
298.15 K, x2 = 0.4557	1.396
298.15 K, x2 = 0.5044	1.371
298.15 K, x2 = 0.5519	1.351
298.15 K, x2 = 0.6714	1.331
298.15 K, x2 = 0.7194	1.324
298.15 K, x2 = 0.7886	1.32
298.15 K, x2 = 0.8626	1.325
298.15 K, x2 = 0.9296	1.335
308.15 K, x2 = 0.0462	1.569
308.15 K, x2 = 0.0741	1.532
308.15 K, x2 = 0.1171	1.477
308.15 K, x2 = 0.1439	1.445
308.15 K, x2 = 0.1806	1.405
308.15 K, x2 = 0.2481	1.342
308.15 K, x2 = 0.2629	1.329
308.15 K, x2 = 0.295	1.303
308.15 K, x2 = 0.3388	1.272
308.15 K, x2 = 0.3769	1.249
308.15 K, x2 = 0.4331	1.218
308.15 K, x2 = 0.4765	1.198
308.15 K, x2 = 0.527	1.178
308.15 K, x2 = 0.5759	1.163
308.15 K, x2 = 0.6373	1.149
308.15 K, x2 = 0.7278	1.138
308.15 K, x2 = 0.7527	1.136
308.15 K, x2 = 0.8209	1.134
308.15 K, x2 = 0.9374	1.142
318.15 K, x2 = 0.0278	1.314
318.15 K, x2 = 0.0571	1.276
318.15 K, x2 = 0.0872	1.241
318.15 K, x2 = 0.1222	1.203
318.15 K, x2 = 0.155	1.173
318.15 K, x2 = 0.1942	1.14
318.15 K, x2 = 0.2296	1.113
318.15 K, x2 = 0.2726	1.084
318.15 K, x2 = 0.3115	1.061
318.15 K, x2 = 0.3575	1.037
318.15 K, x2 = 0.3995	1.019
318.15 K, x2 = 0.4522	0.999
318.15 K, x2 = 0.4995	0.984
318.15 K, x2 = 0.5564	0.97
318.15 K, x2 = 0.6085	0.961
318.15 K, x2 = 0.6725	0.954
318.15 K, x2 = 0.7324	0.95
318.15 K, x2 = 0.7851	0.948
318.15 K, x2 = 0.868	0.953
